From patent publication US20250269050A1, “CYCLIC DICHALCOGENIDE ADC LINKER UNITS AND USES THEREOF” (priority 2024, published 2025)

How the values were obtained:
[1] = In vivo pharmacokinetics experiment in mice (intact immunoconjugate in plasma, MS-based); details: single 7 mg/kg intravenous injection, plasma up to 380 h, FIG. 3
Experimental: Mice are maintained in individually ventilated cages at constant temperature (22±2° C., air-conditioned) and humidity (45-65%), under optimum hygienic conditions with 10-15 air changes per hour. A cycle of 12 h artificial fluorescent lightning and 12 h darkness is applied and animal behavior is monitored daily throughout the study. The mice receive food and water ad libitum.
To study the in vivo disposition of molecules of the invention mice are treated once with 6, 7 or commercial Trodelvy® at a dose of 7 mg/kg by intravenous injection. Plasma samples are collected at the following time points: predose, postdose: 2 min, 6 h, 24 h, 48 h, 72 h, 168 h, 240 h, and 380 h. All samples are analyzed using an MS-based analytical method for quantification of the intact immunoconjugates and of the free molecular cargo in the mouse plasma.

[2] = system: Trop-2-positive breast cancer cancer cell line; experiment: Anti-cancer efficacy study in mice, Trop-2-positive cancer model; format: in vivo; details: single treatment at day 7, 3 mg/kg intravenous

Substance: Trodelvy®
- intact immunoconjugate in mouse plasma over time [1]: fast and significant loss of intact immunoconjugate
- tumor growth compared to the vehicle group ([2]; FIG. 4): strong suppression of tumor growth
- duration of tumor response ([2]; up to day 57, FIG. 4): tumors significantly start to grow again after day 30
